From US9957289B2, “Compounds and methods for treating bacterial infections” (Washington University, priority 2013, dated 2018)

The molecules below were run against T1, FimH (Escherichia coli, UniProt P08191) (assay: Hemagglutination inhibition (HAI) assay, guinea pig red blood cells). Conditions: concentration inhibiting >90% hemagglutination of guinea pig red blood cells.
T1 construct: endogenous in cells; host or cells: type 1 piliated uropathogenic E. coli (UPEC)
T1 sequence (P08191 22-300): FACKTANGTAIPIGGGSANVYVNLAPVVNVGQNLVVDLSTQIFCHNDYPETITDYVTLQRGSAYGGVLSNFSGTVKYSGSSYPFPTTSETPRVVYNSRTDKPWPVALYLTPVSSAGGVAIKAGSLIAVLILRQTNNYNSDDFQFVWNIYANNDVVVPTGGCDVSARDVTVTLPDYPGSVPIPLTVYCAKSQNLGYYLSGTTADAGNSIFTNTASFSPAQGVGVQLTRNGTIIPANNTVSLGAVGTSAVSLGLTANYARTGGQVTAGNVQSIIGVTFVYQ
Type: cell-based, E. coli
Experimental: FIG. 15 depicts the hemagglutination assay (HA) used to assess the compounds' ability to block FimH mediated binding. The HAI titer quantitatively measure the effect of inhibitors on blocking the FimH-mediated hemagglutination (HA) of guinea pig red blood cell infected with E. coli.
In some embodiments, activity of the compound is measured using hemmagglutination titer of guinea pig red blood cells. Hemagglutination of guinea pig red blood cells by type1 piliated UPEC is dependent upon FimH mannose binding ability and serial dilutions allow a quantitative analysis.
Hemagglutination assays for mannose-sensitive agglutination of guinea pig red blood cells were performed as previously described.
In the case of `CNC(=O)c1cccc(-c2ccc([C@H](O)C3OC(CO)C(O)C(O)C3O)c(C)c2)c1` (single isomer, unassigned) [Example 18B], the “HAI Titer EC>90” value was 6.000 µM. With `COC(=O)c1cccc(-c2ccc(O[C@H]3O[C@@H](CO)[C@@H](O)[C@H](O)[C@H]3O)c(C)c2)c1` [Example 1, methyl 3-[3-methyl-4-[(2R,3R,4S,5S,6S)-3,4,5-trihydroxy-6-(hydroxymethyl)tetrahydropyran-2-yl]oxy-phenyl]benzoate] the “HAI Titer EC>90” value was 0.12 µM. For `Cc1cc(-c2cccc(C(=O)Nc3ccncc3)c2)ccc1O[C@H]1O[C@@H](CO)[C@@H](O)[C@H](O)[C@H]1O` [Example 3, 3-[3-methyl-4-[(2R,3R,4S,5S,6S)-3,4,5-trihydroxy-6-(hydroxymethyl)tetrahydropyran-2-yl]oxy-phenyl]-N-(4-pyridyl)benzamide], the “HAI Titer EC>90” value was 0.064 µM. `Cc1cc(-c2cccc(C(=O)Nc3cccnc3)c2)ccc1O[C@H]1O[C@@H](CO)[C@@H](O)[C@H](O)[C@H]1O` [Example 4, 3-[3-methyl-4-[(2R,3R,4S,5S,6S)-3,4,5-trihydroxy-6-(hydroxymethyl)tetrahydropyran-2-yl]oxy-phenyl]-N-(3-pyridyl)benzamide] was tested, and the “HAI Titer EC>90” value was 0.032 µM. In the case of `Cc1nnc(-c2ccc(-c3ccc(O[C@H]4O[C@@H](CO)[C@@H](O)[C@H](O)[C@H]4O)c(C)c3)cc2)o1` [Example 5, (2S,3S,4S,5R,6R)-2-(hydroxymethyl)-6-[2-methyl-4-[4-(5-methyl-1,3,4-oxadiazol-2-yl)phenyl]phenoxy]tetrahydropyran-3,4,5-triol], the “HAI Titer EC>90” value was 0.062 µM. In the case of `Cc1nnc(-c2cccc(-c3ccc(O[C@H]4O[C@@H](CO)[C@@H](O)[C@H](O)[C@H]4O)c(C)c3)c2)o1` [Example 6, (2S,3S,4S,5R,6R)-2-(hydroxymethyl)-6-[2-methyl-4-[3-(5-methyl-1,3,4-oxadiazol-2-yl)phenyl]phenoxy]tetrahydropyran-3,4,5-triol], the “HAI Titer EC>90” value was 0.062 µM. `COC(=O)Cn1ccc2ccc(-c3ccc(O[C@H]4O[C@@H](CO)[C@@H](O)[C@H](O)[C@H]4O)c(C)c3)cc2c1=O` [Example 8, methyl 2-[7-[3-methyl-4-[(2R,3R,4S,5S,6S)-3,4,5-trihydroxy-6(hydroxymethyl)tetrahydropyran-2-yl]oxy-phenyl]-1-oxo-2-isoquinolyl]acetate] was tested, and the “HAI Titer EC>90” value was 0.006 µM. With `Cc1cc(-c2ccc3ccn(CC(=O)O)c(=O)c3c2)ccc1O[C@H]1O[C@@H](CO)[C@@H](O)[C@H](O)[C@H]1O` [Example 9, 2-[7-[3-methyl-4-[(2R,3R,4S,5S,6S)-3,4,5-trihydroxy-6-(hydroxymethyl)tetrahydropyran-2-yl]oxy-phenyl]-1-oxo-2-isoquinolyl]acetic acid] the “HAI Titer EC>90” value was 0.016 µM. With `Cc1cc(-c2ccc3ccn(CC(=O)Nc4cccnc4)c(=O)c3c2)ccc1O[C@H]1O[C@@H](CO)[C@@H](O)[C@H](O)[C@H]1O` [Example 10, 2-[7-[3-methyl-4-[(2R,3R,4S,5S,6S)-3,4,5-trihydroxy-6-(hydroxymethyl)tetrahydropyran-2-yl]oxy-phenyl]-1-oxo-2-isoquinolyl]-N-(3-pyridyl)acetamide] the “HAI Titer EC>90” value was 0.001 µM. `Cc1cc(-c2ccc3ccn(CC(=O)Nc4ccncc4)c(=O)c3c2)ccc1O[C@H]1O[C@@H](CO)[C@@H](O)[C@H](O)[C@H]1O` [Example 11, 2-[7-[3-methyl-4-[(2R,3R,4S,5S,6S)-3,4,5-trihydroxy-6-(hydroxymethyl)tetrahydropyran-2-yl]oxy-phenyl]-1-oxo-2-isoquinolyl]-N-(4-pyridyl)acetamide] was tested, and the “HAI Titer EC>90” value was 0.001 µM. `Cc1cc(-c2ccc3ccn(CC(=O)N4CCN(C)CC4)c(=O)c3c2)ccc1O[C@H]1O[C@@H](CO)[C@@H](O)[C@H](O)[C@H]1O` [Example 12, 2-[2-(4-methylpiperazin-1-yl)-2-oxo-ethyl]-7-[3-methyl-4-[(2R,3R,4S,5S,6S)-3,4,5-trihydroxy-6-(hydroxymethyl)tetrahydropyran-2-yl]oxy-phenyl]isoquinolin-1-one] was tested, and the “HAI Titer EC>90” value was 0.008 µM. `Cc1cc(-c2ccc3ccn(CC(=O)NCCN)c(=O)c3c2)ccc1OC1OC(CO)C(O)C(O)C1O` [Example 13, N-(2-aminoethyl)-2-[7-[3-methyl-4-[(2R,3R,4S,5S,6S)-3,4,5-trihydroy-6-(hydroxymethyl)tetrahydropyran-2-yl]oxy-phenyl]-1-oxo-2-isoquinolyl]acetamide] was tested, and the “HAI Titer EC>90” value was 0.016 µM. In the case of `Cc1cc(-c2ccc3ccn(CCN(C)C)c(=O)c3c2)ccc1O[C@H]1O[C@@H](CO)[C@@H](O)[C@H](O)[C@H]1O` [Example 14, 2-(2-dimethylaminoethyl)-7-[3-methyl-4-[(2R,3R,4S,5S,6S)-3,4,5-trihydroxy-6-(hydroxymethyl)tetrahydropyran-2-yl]oxy-phenyl]isoquinolin-1-one], the “HAI Titer EC>90” value was 0.012 µM. For `Cc1cc(-c2ccc3ccn(Cc4ccncc4)c(=O)c3c2)ccc1O[C@H]1O[C@@H](CO)[C@@H](O)[C@H](O)[C@H]1O` [Example 15, 7-[3-methyl-4-[(2R,3R,4S,5S,6S)-3,4,5-trihydroxy-6-(hydroxymethyl)tetrahydropyran-2-yl]oxy-phenyl]-2-(4-pyridylmethyl)isoquinolin-1-one], the “HAI Titer EC>90” value was 0.004 µM. With `Cc1cc(-c2ccc3ccn(Cc4cccnc4)c(=O)c3c2)ccc1O[C@H]1O[C@@H](CO)[C@@H](O)[C@H](O)[C@H]1O` [Example 16, 7-[3-methyl-4-[(2R,3R,4S,5S,6S)-3,4,5-trihydroxy-6-(hydroxymethyl)tetrahydropyran-2-yl]oxy-phenyl]-2-(3-pyridylmethyl)isoquinolin-1-one] the “HAI Titer EC>90” value was 0.008 µM. `CNC(=O)c1sc(-c2ccc(O[C@H]3O[C@@H](CO)[C@@H](O)[C@H](O)[C@H]3O)c(C)c2)cc1NC(N)=O` [Example 17, N-methyl-5-[3-methyl-4-[(2R,3R,4S,5S,6S)-3,4,5-trihydroxy-6-(hydroxymethyl)tetrahydropyran-2-yl]oxy-phenyl]-3-ureido-thiophene-2-carboxamide] was tested, and the “HAI Titer EC>90” value was 0.024 µM. With `CNC(=O)c1cccc(-c2ccc(C[C@H]3O[C@@H](CO)[C@@H](O)[C@H](O)[C@H]3O)c(C)c2)c1` [Example 19, N-methyl-3-[3-methyl-4-[[(2R,3R,4R,5S,6S)-3,4,5-trihydroxy-6-(hydroxymethyl)tetrahydropyran-2-yl]methyl]phenyl]benzamide] the “HAI Titer EC>90” value was 2.000 µM.

What follows are molecules tested on UTI89 (assay: Mouse model of acute UTI, bladder bacterial CFU after UTI89 infection). Conditions: mice, 25 mg/kg oral in 10% cyclodextrin 30 min prior to infecting with UTI89; 6 hpi.
Type: in vivo, Escherichia coli
Experimental: The efficacy of in vivo mannoside treatment was evaluated after orally dosing animals with 50 mg/kg of mannosides ZFH-4269 (FIG. 1A), ZFH-5254 (FIG. 1B) and ZFH-5240 (FIG. 1C) or DMSO or PBS 30 min prior to infecting with UTI89. At 6 hours post-infection (hpi) the bladders were removed and total bacterial CFUs were quantitated. […] Next, analogs of 254 were evaluated in the same mouse model of urinary tract infection. Animals were orally dosed with 25 mg/kg of mannosides ZFH-4269 (FIG. 2A), 1CJ68 (FIG. 2B) and 1CJ70 (FIG. 2C) in 10% cyclodextrin or 10% cyclodextrin 30 min prior to infecting with UT189.
The efficacy of in vivo mannoside treatment was evaluated after orally dosing animals with 25 mg/kg of mannosides ZFH269, Prodrug FIM-4269, ZFH-5254, and ZFH-5240 in 10% cyclodextrin or 10% cyclodextrin 30 min prior to infecting with UTI89. At 6 hours post-infection (hpi) the bladders were removed and total bacterial CFUs were quantitated. […] Next, several different prodrugs were evaluated in the same mouse model of urinary tract infection. Animals were orally dosed with 25 mg/kg of mannosides ZFH-4269, prodrug FIM-1233 (FIG. 8B), prodrug FIM-6123 (FIG. 8C) and prodrug 269 in 10% cyclodextrin or 10% cyclodextrin 30 min prior to infecting with UT189.
The FimH-mannose interaction was further investigated in an effort to develop potential ligand-based antagonists of UTIs. […] The non-reducing Man4 anchors into the mannose-binding pocket while the GlcNAc folds over Thr51 allowing specific interactions with a hydrophobic tyrosine gate. Heptyl mannoside mimics the GlcNAc tail of oligomannose-3 and extends it further to increase interactions outside the binding pocket resulting in high affinity binding (Kd=5 nM). Based on the high affinity of heptyl mannose for FimH, the ability of heptyl mannose to reduce bacterial infection in our mouse model of UTI was tested. First, biofilm formation as a surrogate for IBCs formed in the bladder was evaluated. […] Thus, UPEC strain UTI89 was incubated with heptyl mannose prior to inoculation into the bladders of mice.
Bacteria were grown under type 1 pili-inducing conditions (2×24 h at 37° C. statically in LB). The bacteria were harvested and resuspended to an OD600 of 0.5 in PBS. Eight-week-old C3H/HeN (Harlan) female mice were anesthetized by inhalation of isoflurane and infected via transurethral catheterization with […] of the bacterial suspension, resulting in 1-2×10^7 inoculum. At 6 hpi, mice were sacrificed by cervical dislocation under anesthesia and the bladders were immediately harvested and processed as described below. All animal studies using mice were approved by the Animal Studies Committee of Washington University (Animal Protocol Number 20100002).
Mannoside ZFH-2056 was administered either IP (5 mg/kg) or orally (100 mg/kg) 30 min prior to inoculation with UTI89. To enumerate the bacteria present, mice were sacrificed at 6 hpi and bladders were aseptically removed and homogenized in 1 ml PBS, serially diluted and plated onto LB agar plates. CFU was enumerated after 16 h of growth at 37° C.
`CNC(=O)c1cccc(-c2ccc(OC3OC(COP(=O)(O)O)C(O)C(O)C3O)c(C)c2)c1` [Example 21, [(2S,3S,4S,5R,6R)-3,4,5-trihydroxy-6-[2-methyl-4-[3-(methylcarbamoyl)phenyl]phenoxy]tetrahydropyan-2-yl]methyl dihydrogen phosphate] was tested, and the “total bacterial CFUs in the bladder” value was “drop in bacterial counts”. In the case of `CNC(=O)c1cccc(-c2ccc(O[C@H]3O[C@@H](COC(=O)CN(C)C)[C@@H](O)[C@H](O)[C@H]3O)c(C)c2)c1` [Example 22, [(2S,3S,4S,5R,6R)-3,4,5-trihydroxy-6-[2-methyl-4-[3-(methylcarbamoyl)phenyl]phenoxy]tetrahydropyran-2-yl]methyl 2-dimethylaminoacetate], the “total bacterial CFUs in the bladder” value was “drop in bacterial counts”.
